Test results published in patent US11510890B2, “Meroterpenoid compounds for use in the prevention and treatment of a neurological disorder” (SOCIETE DES PRODUITS NESTLE S.A., priority 2017, dated 2022).
Where two headings read alike, the source gives them in different places.

Legend:
[1] = test system: Human astrocytoma cell line CCF-STTG1; experiment: Lactate release screening assay (fluorescent enzymatic assay); assay type: cell-based; conditions: for Primary screen %: CCF-STTG1, supernatants after 2 hours
Protocol: Human astrocytoma cell line CCF-STTG1 was cultured at 37° C. in a humidified atmosphere (5% CO2) in RPMI-1640 medium supplemented with 10% (v/v) heat-inactivated fetal calf serum, 50 μg/ml penicillin and 100 μg/ml streptomycin.
CCF-STTG1 were seeded in 384-well plates. Two days later, the cells were washed 3 times and incubated 30 min in Krebs-Ringer bicarbonate HEPES (KRBH) buffer containing (in mM): 140 NaCl, 3.6 KCl, 0.5 NaH2PO4, 0.5 MgSO4, 1.5 CaCl2, 10 HEPES, 5 NaHCO3 (pH7.4) supplemented with 2.5 mM glucose. Then, the cells were maintained in the buffer in the presence of tested compounds. Supernatants were collected after 2 hours and were assessed for lactate concentration. Lactate concentration in the supernatants were determined by fluorescent enzymatic assay. Samples were diluted in assay reagent containing (in mM or U/ml)): 100 sodium phosphate (pH7.5), 0.1 EDTA, 0.05 Amplex UltraRed, 0.1 Lactate oxidase, 1.5 Horseradish Peroxidase.
Fluorescence emission was measured at 600 nm after an excitation at 500 nm using Bioteck Synergie Neo multimode reader after 30 min at room temperature protected from direct light.

[2] = test system: human iPSc derived into astrocyte (iCell astrocytes); experiment: Lactate release dose response in human iPSc derived astrocytes; assay type: cell-based
Protocol: Dose response curves were established for compounds identified in the screen to stimulate lactate secretion. The EC50 values for the stimulation of lactate secretion were determined using primary human IPS cell derived astrocytes.
(§1) Differentiated human iPSCs (iCell astrocytes, and iCell cardiomyocytes) were obtained from Cellular Dynamics International (CDI, Madison, Wis., USA). iCell astrocytes were cultured in DMEM supplemented with 10% fetal calf serum and N2 complement. iCell cardiomyocytes were maintained in a medium supplied by CDI. Cell cultures were kept in a humidified atmosphere (5% CO2) at 37° C.
Dose response of compounds on lactate release from human iPSc derived into astrocyte fitted with a log (agonist) vs. response variable slope to extract […] (EC50). Mean±SEM in duplicate.
(§2) The toxicity expressed in log IC50 (ATP content after 24 hours compound treatment on human iPSc derived into cardiomyocyte) was compared against the lactate release in log EC50 (lactate secretion after 2 hours compound treatment in human iPSc derived into astrocytes).

[3] = test system: human iPSc derived into cardiomyocyte (iCell Cardiomyocytes); experiment: Toxicity - ATP content (CellTiter-Glo); assay type: cell-based
Protocol: as §1
iCell Cardiomyocytes were seeded in 384-well plates. Eight days later cells were treated for 24 hours with compounds. Cell viability was determined by the quantification of intracellular ATP after cell lysis. ATP was used as an indicator of metabolically active cells. ATP was measured using a luminescent cell viability assay (CellTiter-Glo®; […]). Luminescence was measured after 20 min in a Bioteck Synergie Neo multimode reader.
Toxicity of the meroterpenoid compounds were evaluated in human IPS cell derived cardiomyocytes by measuring total ATP in cell lysates.
Dose response of compounds on human iPSc derived into cardiomyocyte with evaluation of the ATP level using cell titer glow. Results were normalized between untreated cells (100%) and positive control (0%).
as §2

CCF-STTG1 = experiment: Lactate release orthogonal assay (spectrophotometric enzymatic assay); assay type: cell-based, human; conditions: CCF-STTG1, supernatants after 2 hours, colorimetric kit
Protocol: CCF-STTG1 were seeded in 384-well plates. Two days later, the cells were washed 3 times and incubated 30 min in Krebs-Ringer bicarbonate HEPES (KRBH) buffer containing (in mM): 140 NaCl, 3.6 KCl, 0.5 NaH2PO4, 0.5 MgSO4, 1.5 CaCl2, 10 HEPES, 5 NaHCO3 (pH7.4) supplemented with 2.5 mM glucose. The cells were maintained in the buffer in the presence of tested compounds. Supernatants were collected after 2 hours and assessed for lactate concentration. Lactate concentration in the supernatant was determined by a spectrophotometric enzymatic assay (lactate colorimetric assay kit II no. K627; BioVision, Milpitas, Calif. USA). In this kit, lactate is oxidized by lactate dehydrogenase to generate a product which interacts with a probe to produce a color (λmax=450 nm).
Absorbance was measure after 30 min at 450 nm using Bioteck Synergie Neo multimode reader. Background absorbance obtained in the absence of kit was subtracted from each value.
The stimulation of lactate secretion after treatment with meroterpenoid compounds was confirmed in an orthogonal assay based on another enzyme to measure lactate. The results of the lactate release measurement during the drug discovery screen for each compound and the results of lactate release measure with the orthogonal assay were correlated.

[4] = lactate secretion after 2 hours compound treatment, read-out: Astrocytes Lactate release EC50
[5] = log of EC50 in M, given negative, 2 hours compound treatment
[6] = ATP content after 24 hours compound treatment, read-out: Cardiomyocytes Toxicity IC50
[7] = log of IC50 in M, given negative, ATP content after 24 hours

Row | Compound | Primary screen % [1] [%] | Reconfirmation % [1] [%] | EC50 [2, 4] [µM] | Astrocytes Lactate release logEC50 [2, 5] | IC50 [3, 6] [µM] | Cardiomyocytes Toxicity log IC50 [3, 7] | Orthogonal assay % (CCF-STTG1) [%] | EC50 ([2]; Homo sapiens, iPSC, lactate secretion after 2 hours compound treatment, read-out: Astrocytes Lactate release EC50) [µM] | EC50 ([2]; Homo sapiens, iPSC, log of EC50 in M, given negative, 2 hours compound treatment, read-out: Astrocytes Lactate release logEC50 (converted)) [µM] | IC50 ([3]; Homo sapiens, iPSC, ATP content after 24 hours compound treatment, read-out: Cardiomyocytes Toxicity IC50) [µM] | IC50 ([3]; Homo sapiens, iPSC, log of IC50 in M, given negative, ATP content after 24 hours, read-out: Cardiomyocytes Toxicity log IC50 (converted)) [µM]
1 | C/C(=C\Cc1c(O)c(Cl)c(C)c(C=O)c1O)CC[C@@]1(C)[C@H](C)CCC(=O)[C@@H]1C [22562-67-0, Ilicicolin C] | 70 | 74 | 0.15 | −6.8 | 71 | −4.2 | 84 | – | – | – | –
2 | C/C(=C\Cc1c(O)cc(C)c(C=O)c1O)CC[C@@]1(C)[C@H](C)CCC(=O)[C@@H]1C [22562-68-1, Antibiotic LL-Z 1272ε] | 72 | 83 | 2.6 | −5.6 | 81 | −4.1 | 68 | – | – | – | –
3 | CC(/C=C/C1(C)C(C)C=CC(=O)C1C)=C\Cc1c(O)c(Cl)c(C)c(C=O)c1O (stereo not drawn) [22581-11-9] | 68 | 50 | 0.014 | −7.9 | 3.2 | −5.5 | 61 | – | – | – | –
4 | CC(/C=C/[C@@]1(C)[C@H](C)CCC(=O)[C@@H]1C)=C\Cc1c(O)c(Cl)c(C)c(C=O)c1O [26166-39-2, Ascochlorin] | – | – | – | – | – | – | – | 0.011 | 0.0126 | 1.2 | 1.26
5 | CC(=O)OC(C[C@@]1(C)[C@H](C)CCC(=O)[C@@H]1C)/C(C)=C/Cc1c(O)c(Cl)c(C)c(C=O)c1O (stereo partly drawn) [38965-84-3, Chloronectrin] | 104 | 97 | – | – | 30 | −4.5 | 68 | – | – | – | –
6 | CC(C)=CCC/C(C)=C/Cc1c(O)cc(CCc2ccccc2)c(C(=O)O)c1O [73436-04-1, 4-O-Demethylamorfrutin B] | 82 | 77 | 10 | −5.0 | – | – | 68 | – | – | – | –
7 | COc1cc(CCc2ccccc2)c(C(=O)O)c(O)c1CC=C(C)C [80489-90-3, Amorfrutin] | 85 | 122 | 3.2 | −5.5 | 47 | −4.3 | 80 | – | – | – | –
8 | CC(/C=C/[C@@]1(C)[C@H](C)CCC(=O)[C@@H]1C)=C\Cc1c(O)cc(C)c(C=O)c1O [165187-16-6, Cylindrol B] | 100 | 61 | 6.7 | −5.2 | 31 | −4.5 | 67 | – | – | – | –
9 | Ilicicolin F [22738-98-3] | 96 | 142 | 0.027 | −7.6 | 7 | −5.2 | 119 | – | – | – | –
10 | Lasalocid [25999-31-9] | 88 | 73 | 4.4 | −5.4 | 11 | −4.9 | 53 | – | – | – | –
